Data set [1] in a line: method code SF-HPLC, from DOI: 10.1002/ps.2780130506.
Data set [2] can be described thus: method code SF-AS, from DOI: 10.1007/s0012800114, PMID: 10885996.
Data set [3] is described as follows: method code SF-AS, from DOI: 10.1148/radiology.194.3.7862981, PMID: 7862981.
Data set [4] in a line: method code SF-HPLC, from DOI: 10.1021/jm701549s, PMID: 18558667. The conditions noted are these: pH 7.4.
Data set [5] in a line: method code SF-HPLC, from Hairsine, P. (1997). Direct measurement of partition coefficient by shake flask technique and gradient elution HPLC. Lab. Practice, 38(11)73-75.
Data set [6] in a line: method code SF-HPLC, from DOI: 10.1002/ps.2780370106. The conditions noted are these: pH 0.0.
Data set [7] can be described thus: method code SF-GLC, from DOI: 10.1039/an9709500763, PMID: 5449617.
Data set [8] is described as follows: method code SF-RC, from Lázníček, M., Waisser, K., Květina, J., Beňo, P., & Tichý, M. (1985). QSAR methods in pharmacokinetic analysis. QSAR in Toxicology and Xenobiochemistry, 249-256. The conditions noted are these: pH 1.0.
Data set [9] can be described thus: method code SF-AS, from DOI: 10.1016/0009-2797(77)90097-7, PMID: 407012. The conditions noted are these: pH 7.0.
The nature of data set [10]: method code SF-HPLC, from DOI: 10.1021/je900271h.
Data set [11] can be described thus: method code SF-CR, from DOI: 10.1042/bj1780443, PMID: 109087. The conditions noted are these: pH 7.4.
The nature of data set [12]: method code SF-HPLC, from DOI: 10.1248/bpb.16.154, PMID: 8364451.
A short description of data set [13]: method code SF-RC, from Audran, M.; Chanal, J.; Marignan, R.; Cousse, H. (1984). Correlations between structure and pharmacokinetic parameters in a series of cresotinamides. International Journal of Pharmaceutics, …. The conditions noted are these: pH 1.0.
Data set [14] can be described thus: method code SF-GLC, from PMID: 6629728. The conditions noted are these: pH 7.4.
The nature of data set [15]: method code SF-AS, from DOI: 10.1248/cpb.28.85. The conditions noted are these: pH 2.0.
A short description of data set [16]: method code SF-AS, from DOI: 10.1271/bbb1961.46.2755.
The nature of data set [17]: method code SF, from DOI: 10.1002/jbm.820150603, PMID: 7309762.
A short description of data set [18]: method code SF-ESR, from DOI: 10.1111/1523-1747.ep12319780, PMID: 2551971. The conditions noted are these: pH 7.0.
Data set [19] can be described thus: method code SF-GLC, from DOI: 10.1016/s0022-3565(25)30310-1, PMID: 1181405. The conditions noted are these: pH 7.4.
Assay in data set [20]: not given
The source holds these as a separate data set.

Data set [21] can be described thus: method code SF-AS, from DOI: 10.1248/cpb.36.1393. The conditions noted are these: pH 7.4.
A short description of data set [22]: method code SF-GLC, from DOI: 10.1016/0378-4274(82)90116-3, PMID: 7090003.
The nature of data set [23]: method code SF-AS, from DOI: 10.1016/j.ejmech.2004.01.002, PMID: 15072846. The conditions noted are these: pH 7.4.
Data set [24] is described as follows: method code SF-HPLC, from DOI: 10.1021/jf0623440, PMID: 17263479.
Assay in data set [25]: not given
This is another data set of the same source.

Data set [26] is described as follows: method code SF-AS, from DOI: 10.1248/cpb.26.2824.
Data set [27] can be described thus: method code SF-AS, from DOI: 10.1093/ajhp/38.9.1308, PMID: 7282713.
Data set [28] in a line: method code SF-RC, from DOI: 10.1016/0006-2952(75)90159-8, PMID: 1168477.
Assay in data set [29]: not given
This is another data set of the same source.

Data set [30] can be described thus: method code SF-AS, from DOI: 10.1016/s0378-5173(98)00405-0, PMID: 10089287. The conditions noted are these: pH 7.4.
Assay in data set [31]: not given
The source holds these as a separate data set.

Data set [32] in a line: method code SF, from DOI: 10.1080/09553009014551091, PMID: 1970998. The conditions noted are these: pH 7.4.
Assay in data set [33]: not given
The source holds these as a separate data set.

Assay in data set [34]: not given
This is another data set of the same source.

Data set [35] is described as follows: method code SF-HPLC, from PMID: 3268116. The conditions noted are these: pH 7.0.
Data set [36] can be described thus: method code SF-HPLC, from DOI: 10.1111/j.2042-7158.1995.tb05807.x, PMID: 7791035. The conditions noted are these: pH 7.0.
Assay in data set [37]: not given
This is another data set of the same source.

Assay in data set [38]: not given
This is another data set of the same source.

A short description of data set [39]: method code SF, from DOI: 10.1002/jps.2600641111, PMID: 1195110. The conditions noted are these: pH 7.4.
The nature of data set [40]: method code SF-RC,FL, from DOI: 10.1016/0006-2952(81)90006-x, PMID: 6456004.
A short description of data set [41]: method code SF-AS, from DOI: 10.1016/0378-5173(80)90117-9.
Data set [42] is described as follows: method code SF-AS, from DOI: 10.1021/es00082a014. The conditions noted are these: pH 7.0.
Data set [43] in a line: method code SF, from DOI: 10.1038/248065a0, PMID: 4150456. The conditions noted are these: pH 9.0.
Data set [44] can be described thus: method code SF-HPLC, from PMID: 11745753. The conditions noted are these: pH 7.4.
A short description of data set [45]: method code SF-HPLC, from DOI: 10.1016/s0021-9673(01)81976-2, PMID: 4066822.

`CNC(=O)ON=Cc1ccc(Cl)c(Cl)c1` gave a logP in [1] of 2.89.
Consider `CS(=O)(=O)c1ccc(C=O)cc1`, for which, in [2], the logP amounted to 0.35.
`O=[N+]([O-])c1nccn1C[C@H](O)[C@H](O)CF` displayed a lipophilicity (logP) in data set [3] of -0.77.
The molecule `CN(C)C(=O)c1ccc(Br)cc1` had a log distribution coefficient (logD) in [4] of 1.83.
Regarding `COc1ccccc1C(=O)O`, the lipophilicity (logP) in data set [5] is 1.62.
With `NC(=O)Nc1ccc(C(=O)O)cc1`, the logD in [6] turned out to be 0.73.
In data set [7], `COP(=O)(OC)Oc1ccc([N+](=O)[O-])cc1` displayed a logP of 1.33.
The molecule `O=C(O)CCc1ccccc1I` showed a log distribution coefficient (logD) in [8] of 2.47.
`CN(C)c1nc(N(C)C)nc(N(C)O)n1` showed a logD in [9] of 1.61.
`COc1cc(C(=O)O)ccc1O` yielded a lipophilicity (logP) in data set [10] of 1.46.
In data set [11], `CCc1ccc(O)cc1` displayed a logD of 2.4.
Consider `CCCCCCCBr`, for which the log partition coefficient (logP) worked out at 4.44.
In data set [12], `O=C(O)CNC(=O)c1cc(O)ccc1O` returned a logP of 0.28.
Molecule `Cc1cccc(C(N)=O)c1O` registered a pH-dependent lipophilicity (logD) in data set [13] of 2.12.
In the case of `C1CCC(C2CO2)CC1` (stereo unspecified), the logD in data set [14] was found to be 2.43.
The molecule `O=C(O)COc1ccccc1` yielded a logD in [15] of 1.35.
With `O=C1COC(=O)N1c1ccccc1`, the logP in data set [16] was 0.93.
As for `C=C(C)C(=O)OCCCC`, the lipophilicity (logP) in data set [17] came to 2.6.
In turn, `CC1(C)CCC(C)(C)N1[O]` came in with a logD in data set [18] of 1.
The molecule `CCCCCOC(=O)NC` gave a logD in data set [19] of 1.96.
Consider `COc1ccc([N+](=O)[O-])c(C)c1`, for which the logP in data set [20] was found to be 2.38.
In turn, `[O-][n+]1ccc(Cl)c2ccc(Cl)cc21` yielded a pH-dependent lipophilicity (logD) in data set [21] of 1.85.
Turning to `C=C(C)C(=O)OC(C)C`, the logP in [22] is 2.25.
Consider `NC(=O)N/N=C/C=C/c1ccc([N+](=O)[O-])o1`, for which the log distribution coefficient (logD) in [23] came out at 0.97.
Molecule `O=[N+]([O-])/C=C1/NCCN1Cc1cnc(Cl)s1` showed a logP in data set [24] of 0.03.
In data set [25], `CC(C)OC(C)(C)C` came in with a logP of 2.14.
In [26], `Cc1ccc(O)c(C(=O)O)c1` returned a logP of 2.78.
In [27], `NNc1nncc2ccccc12` yielded a logP of 1.
In data set [28], `CCCN(C(C)=O)C(C)C` displayed a logP of 1.48.
For the molecule `O=NN(CCF)C(=O)NC1CCS(=O)(=O)CC1`, in [29], the logP is -0.41.
`Cc1cc(=O)n2ccccc2n1` yielded a logD in [30] of 0.6.
`O=[N+]([O-])c1nccn1[C@@H]1O[C@H](CO)[C@@H](O)[C@H]1O` registered a logP in data set [31] of -1.15.
Regarding `O=C(NCCO)C(F)(F)Cn1ccnc1[N+](=O)[O-]`, in data set [32], the log distribution coefficient (logD) was -0.52.
Regarding `Cn1c(C(F)(F)F)nc2ccccc21`, the log partition coefficient (logP) in [33] amounted to 3.98.
`COC(=O)Nc1nc2ccccc2[nH]1` displayed a log partition coefficient (logP) in data set [34] of 1.75.
For `c1ccc2[nH]ccc2c1`, in data set [35], the logD is 2.27.
Consider `NC(=O)NC(=O)Cc1ccccc1`, for which, in data set [36], the logD came out at 0.66.
With `Cc1ncc(COP(=O)(O)O)c(C=O)c1O`, the logP in data set [37] came out at 0.37.
For `COP(=S)(OC)Oc1cc(Cl)c(Cl)cc1Cl`, the logP in [38] is 4.67.
Molecule `CC(=O)OCCn1c([N+](=O)[O-])cnc1C` yielded a log distribution coefficient (logD) in [39] of 0.3.
In [40], `NCCc1ccc(O)c(O)c1` yielded a logP of -0.97.
As to `CCOc1ccc(O)cc1`, in [41], the logP came out at 1.95.
`Cc1ccc(N)cc1C` displayed a logD in data set [42] of 1.86.
As to `CNC(=S)NCCSCc1c[nH]cn1`, the logD in data set [43] was 0.16.
In the case of `COC(=O)c1ccc(N)cc1`, the pH-dependent lipophilicity (logD) in data set [44] stood at 1.48.
In data set [45], `COC1=C(OC)C(=O)C=CC1=O` displayed a logP of 0.34.

The values above are taken from the SangsterLogP compilation.
